Laboratory results taken from patent publication US8901276B2, “Peptide reagents and methods for detection of colon dysplasia” (The Regents of the University of Michigan, priority 2010, dated 2014).
Entries after “also recorded” stand apart in the source; their conditions may differ.

Key:
[1] = system: human colon surgical specimens (normal mucosa, dysplastic adenomas, carcinoma); assay: Binding of synthetic peptides to human surgical specimens of colon cancer (Example 9)
Experimental: Fresh frozen sections from human surgical specimens were cryosectioned with […] and used to localize peptide binding. The sectioned tissues were air dried and washed with PBS 1×. Sections were incubated with FITC labeled peptides (10 μM) for 15 min at RT. The sections were washed three times each for 1 min in PBS and fixed with 4% paraformaldehyde for 10 min. After fixing, the sections were washed again (1×) and mounted with ProLong® Gold reagent with DAPI (Invitrogen, Carlsbad, Calif.). The sections were imaged under a confocal microscope ([…]). All surgical specimens were obtained from the tissue procurement core of University of Michigan with approval from the Institutional Review Board (IRB).

HT29 cells [2] = assay: Fluorescence microscopy of FITC-labeled peptides; type: cell-based, human; settings: 10 μM; for internalization within HT29 cells: 37° C.; for binding to the surface of HT29 cells: 15 min, 4° C.
Experimental: Preferential binding of the FITC-Peptide 2 and FITC-Control peptide 2 to target and non-target cells was also validated via fluorescence microscopy. HT29 and Hs738.St/Int. cells were grown in 22 mm2 cover slips with ˜80% confluence. Blocking of non-specific binding was performed by adding PBS/0.5% BSA for 30 min. The cells were then incubated with 10 μM of FITC-Peptide 2 or FITC-Control peptide 2 either at 4 or 37° C. for 15 min followed by 1 μg/mL Hoechst dye (Sigma Aldrich, St. Louis, Mo.) along with the peptide. The cells were washed with PBS for 3 times and fixed with 4% paraformaldehyde at room temperature for 10 min. After fixation, the cells were washed again with PBS (1×) and mounted with ProLong® Gold reagent (Invitrogen, Carlsbad, Calif.) and the fluorescence images were acquired with Leica Confocal system. (Leica Microsystems GMBH, Wetzlar, 35578 Germany)
In addition, the ability of the FITC-Peptide 2 peptide to internalize within the HT29 cells was tested. HT29 cells were incubated for 15 min. at either 4° C. or 37° C. in the presence of 10 μM FITC-Peptide 2.
Preferential binding of the FITC-labeled candidate and control peptides to the target and non-target cells was further validated via fluorescence microscopy. HT29 and Hs738.St/Int. cells were grown on cover slips to ˜80% confluence. Blocking of non-specific binding was performed by adding PBS/0.5% BSA for 30 min. The cells were then incubated with 10 μM of 5-FITC-labeled candidate or control peptide at either 4 or 37° C. for 15 min followed by staining with 1 μg/mL Hoechst dye (Sigma Aldrich, St. Louis, Mo.) along with the peptide. The cells were washed 3× with PBS and fixed with 4% paraformaldehyde at RT for 10 min. After fixation, the cells were washed again with PBS and mounted with ProLong Gold reagent (Invitrogen, Carlsbad, Calif.) and fluorescence images were collected with confocal microscopy (Leica TCS SP5 Microsystems, Bannockburn, Ill.).

HT29 cells [3] = assay: Determination of binding constant (plate reader fluorescence); set-up: species or system human
Experimental: The binding affinity of FITC-Peptide 2 to HT29 cells (1×10^5) was determined using various concentrations of the peptide. The fluorescence intensity of the peptide bound to the HT29 cells was measured at saturation. Then, the FITC-labeled peptide was serially diluted in PBS at concentrations that varied from 0 to 70 μmol/L and incubated with 1×10^5 HT29 cells at 4° C. for 1 hr. After washing 3 times with cold PBS/0.2% Tween 20 solution, the unbound peptide was rinsed off. The cells were resuspended in 200 μL PBS and transferred to a 96 well plate. The fluorescence intensity I was measured at 525 nm using 485 nm as the excitation wavelength on a multi-well plate reader (CytoFluor Series 4000; Applied Biosystems Inc, Foster City, Calif.). Binding of the peptide to the cells was calculated using the peptide emission intensity with the same concentration without the cells present. The peptide equilibrium dissociation constant Kd=1/Ka was calculated by performing a least squares fit of the data to the non-linear equation I=(I0+ImaxKa[X])/(I0+Ka[X]). I0 and Imax are the initial and maximum fluorescence intensities, corresponding to no peptide and at saturation, respectively, and [X] represents the concentration of the bound peptide. Origin 6.1 data analysis software (Origin Lab Corp, Northampton, Mass.) was used to fit the equation for non-linear least square fitting. […]

Substance: KCCFPAQ-FITC [FITC-Peptide 2, KCCFPAQ with FITC at the C-terminus on the side chain of lysine residue via GGGSK linker]
- T/B carcinoma compared to normal mucosa [1]: 7
- binding to carcinoma relative to dysplastic adenomas [1]: 1.5 fold
- binding to normal mucosa ([1]; 10 μM, 15 min, RT): no binding was observed
- staining of pre-malignant lesions (dysplastic adenomas) and malignant lesions (carcinoma) ([1]; 10 μM, 15 min, RT): stained consistently
- T/B ratio FITC-Peptide 2 vs. FITC-Control peptide 2 ([1]; adenoma): 3
- T/B ratio FITC-Peptide 2 vs. FITC-Control peptide 2 ([1]; carcinoma): 6
- T/B ratio FITC-Peptide 2 vs. FITC-Control peptide 2 ([1]; normal mucosa): 1
- internalization within HT29 cells (HT29 cells [2]): diffuse staining throughout the cells
- internalization within HT29 cells (HT29 cells [2]; listed as KCCFPAQ peptide): diffuse peptide staining throughout the cells
- binding to the surface of HT29 cells (HT29 cells [2]): binds to the surface of the HT29; also recorded: confined to the cell surface
- binding to the surface of HT29 cells (HT29 cells [2]; listed as KCCFPAQ peptide): binds to the surface of the HT29 cells
- Kd (HT29 cells [3]; FITC-labeled peptide 0 to 70 μM, 4° C., 1 hr, R^2=0.988): 65 nM
- Kd (HT29 cells [3]; summary of results): 65 nM
